Test results reported in patent US20200095223A1, “NOVEL TRIAZOLETHIONE DERIVATIVES” (priority 2017, published 2020).

Assay: Log P by HPLC on reversed phase columns (EEC directive 79/831 Annex V.A8)
Assay type: physicochemical
Settings: reversed phase HPLC column; method [a]: LC-UV, acidic range, 0.1% formic acid in water and acetonitrile as eluent
Experimental: Log P values: […] If more than one Log P value is available within the same method, all the values are given and separated by “+”. Calibration was done with straight-chain alkan2-ones (with 3 to 16 carbon atoms) with known Log P values (measurement of Log P values using retention times with linear interpolation between successive alkanones). Lambda-max-values were determined using UV-spectra from 200 nm to 400 nm and the peak values of the chromatographic signals.

Row | chromatographic logP | SMILES
1 | 3.21 | CC(O)(Cn1nc[nH]c1=S)c1ccc(Oc2ccc(Br)cc2)nc1C(F)(F)F (centres unmarked) [I-S-01, 2-[2-[6-(4-bromophenoxy)-2-(trifluoromethyl)-3-pyridyl]-2-hydroxy-propyl]-4H-1,2,4-triazole-3-thione]
2 | 2.66 | CC(O)(Cn1nc[nH]c1=S)c1ccc(Oc2ccccc2)nc1C(F)(F)F (centres unmarked) [I-S-02, 2-[2-hydroxy-2-[6-phenoxy-2-(trifluoromethyl)-3-pyridyl]propyl]-4H-1,2,4-triazole-3-thione]
3 | 3.11 | CC(O)(Cn1nc[nH]c1=S)c1ccc(Oc2ccc(Cl)cc2)nc1C(F)(F)F (centres unmarked) [I-S-03, 2-[2-[6-(4-chlorophenoxy)-2-(trifluoromethyl)-3-pyridyl]-2-hydroxy-propyl]-4H-1,2,4-triazole-3-thione]
4 | 3.87 | OC(Cn1nc[nH]c1=S)(c1ccc(Oc2ccc(Br)cc2)nc1C(F)(F)F)C1CC1 (centres unmarked) [I-S-04, 2-[2-[6-(4-bromophenoxy)-2-(trifluoromethyl)-3-pyridyl]-2-cyclopropyl-2-hydroxy-ethyl]-4H-1,2,4-triazole-3-thione]
5 | 3.27 | OC(Cn1nc[nH]c1=S)(c1ccc(Oc2ccccc2)nc1C(F)(F)F)C1CC1 (centres unmarked) [I-S-06, 2-[2-cyclopropyl-2-hydroxy-2-[6-phenoxy-2-(trifluoromethyl)-3-pyridyl]ethyl]-4H-1,2,4-triazole-3-thione]
